# Source: ChEMBL document CHEMBL1147633, “Structure-activity relationships of a novel class of endothelin receptor selective antagonists; 6-carboxy-2-isopropylamino-5,7-diarylcyclopenteno[1,2-b]pyridines” (Bioorg Med Chem Lett, 2004)
# Biological target: Endothelin receptor, ET-A/ET-B (Homo sapiens) (UniProt P24530+P25101)
# Assay: Selectivity ratio of inhibitory activity towards endothelin receptor A to endothelin receptor B (ETB/ETA)
# Assay type: protein assay
row,Selectivity ratio,Structure (SMILES)
1,120,COc1ccc([C@@H]2c3nc(NC(C)C)ccc3[C@H](c3ccc4c(c3)OCO4)[C@H]2C(=O)O)c(CC(O)CO)c1 (stereo in doubt) [listing 1 of 2 here]
2,350,CCC(CO)Cc1cc(OC)ccc1[C@@H]1c2nc(NC(C)C)ccc2[C@H](c2ccc3c(c2)OCO3)[C@H]1C(=O)O (stereo in doubt; form 1) [listing 1 of 2 here]
3,1700,COc1ccc([C@@H]2c3nc(NC(C)C)ccc3[C@H](c3ccc4c(c3)OCO4)[C@H]2C(=O)O)c(OC(C)CO)c1 (stereo in doubt; form 1) [listing 1 of 2 here]
4,910,CCC(CO)Cc1cc(OC)ccc1[C@@H]1c2nc(NC(C)C)ccc2[C@H](c2ccc3c(c2)OCO3)[C@H]1C(=O)O (stereo in doubt; form 2) [listing 1 of 2 here]
5,2300,COCC(C)Cc1cc(OC)ccc1[C@@H]1c2nc(NC(C)C)ccc2[C@H](c2ccc3c(c2)OCO3)[C@H]1C(=O)O (stereo in doubt; form 2) [listing 1 of 2 here]
6,860,COc1ccc([C@@H]2c3nc(NC(C)C)ccc3[C@H](c3ccc4c(c3)OCO4)[C@H]2C(=O)O)c(CC(C)CO)c1 (stereo in doubt; form 2) [listing 1 of 2 here]

# Biological target: T1, Endothelin-1 receptor (Homo sapiens, UniProt P25101)
# T1 sequence (P25101 whole entry): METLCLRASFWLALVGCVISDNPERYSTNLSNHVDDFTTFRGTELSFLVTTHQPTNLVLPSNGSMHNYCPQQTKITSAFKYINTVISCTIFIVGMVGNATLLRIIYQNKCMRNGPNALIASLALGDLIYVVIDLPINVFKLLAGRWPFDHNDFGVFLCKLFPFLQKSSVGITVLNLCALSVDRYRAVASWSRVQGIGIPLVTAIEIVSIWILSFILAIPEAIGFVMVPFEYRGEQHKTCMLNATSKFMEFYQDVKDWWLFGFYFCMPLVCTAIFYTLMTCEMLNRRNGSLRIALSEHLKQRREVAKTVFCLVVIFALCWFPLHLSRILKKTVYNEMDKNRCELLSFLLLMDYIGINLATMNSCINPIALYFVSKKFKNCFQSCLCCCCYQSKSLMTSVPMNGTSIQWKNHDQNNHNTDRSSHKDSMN
# Assay: Inhibitory activity against [125I]ET1 binding to human endothelin A receptor
row,IC50,Structure (SMILES)
1,0.011 nM,"COc1ccc([C@@H]2c3nc(NC(C)C)ccc3[C@H](c3ccc4c(c3)OCO4)[C@H]2C(=O)O)c(CC(O)CO)c1 (single isomer, unassigned)"
2,0.014 nM,"COc1ccc([C@@H]2c3nc(NC(C)C)ccc3[C@H](c3ccc4c(c3)OCO4)[C@H]2C(=O)O)c(CC(C)C(=O)N(C)C)c1 (single isomer, unassigned)"
3,0.048 nM,COc1ccc([C@@H]2c3nc(NC(C)C)ccc3[C@H](c3ccc4c(c3)OCO4)[C@H]2C(=O)O)c(CC(O)CO)c1 (stereo in doubt) [listing 2 of 2 here]
4,0.024 nM,COc1ccc([C@@H]2c3nc(NC(C)C)ccc3[C@H](c3ccc4c(c3)OCO4)[C@H]2C(=O)O)c(CC(C)C(=O)N(C)C)c1 (stereo in doubt)
5,0.036 nM,COc1ccc([C@@H]2c3nc(NC(C)C)ccc3[C@H](c3ccc4c(c3)OCO4)[C@H]2C(=O)O)c(OC(C)CO)c1 (stereo in doubt; form 1) [listing 2 of 2 here]
6,0.045 nM,CCC(CO)Cc1cc(OC)ccc1[C@@H]1c2nc(NC(C)C)ccc2[C@H](c2ccc3c(c2)OCO3)[C@H]1C(=O)O (stereo in doubt; form 1) [listing 2 of 2 here]
7,0.059 nM,COc1ccc([C@@H]2c3nc(NC(C)C)ccc3[C@H](c3ccc4c(c3)OCO4)[C@H]2C(=O)O)c(CC(C)CO)c1 (stereo in doubt; form 2) [listing 2 of 2 here]
8,0.057 nM,COc1ccc([C@@H]2c3nc(NC(C)C)ccc3[C@H](c3ccc4c(c3)OCO4)[C@H]2C(=O)O)c(OC(C)CO)c1 (stereo in doubt; form 2) [listing 1 of 2 here]
9,0.011 nM,COCC(C)Cc1cc(OC)ccc1[C@@H]1c2nc(NC(C)C)ccc2[C@H](c2ccc3c(c2)OCO3)[C@H]1C(=O)O (stereo in doubt; form 2) [listing 2 of 2 here]
10,0.011 nM,CCC(CO)Cc1cc(OC)ccc1[C@@H]1c2nc(NC(C)C)ccc2[C@H](c2ccc3c(c2)OCO3)[C@H]1C(=O)O (stereo in doubt; form 2) [listing 2 of 2 here]

# System: Rattus norvegicus
# Assay: Plasma levels of compound was evaluated in rats after 4 hr of oral administration at 10 mg/kg
# Assay type: functional, organism-based
# Design: dose 10 mg/kg
row,Structure (SMILES),Plasma level
1,COc1ccc([C@@H]2c3nc(NC(C)C)ccc3[C@H](c3ccc4c(c3)OCO4)[C@H]2C(=O)O)c(OC(C)CO)c1 (stereo in doubt; form 1) [listing 1 of 2 here],47 nM
2,COCC(C)Cc1cc(OC)ccc1[C@@H]1c2nc(NC(C)C)ccc2[C@H](c2ccc3c(c2)OCO3)[C@H]1C(=O)O (stereo in doubt; form 2) [listing 1 of 2 here],130 nM
3,COc1ccc([C@@H]2c3nc(NC(C)C)ccc3[C@H](c3ccc4c(c3)OCO4)[C@H]2C(=O)O)c(OC(C)CO)c1 (stereo in doubt; form 2) [listing 2 of 2 here],20 nM

# System: Rattus norvegicus
# Assay: Plasma levels of compound was evaluated in rats after 8 hr of oral administration at 10 mg/kg
# Assay type: functional, organism-based
# Design: dose 10 mg/kg
row,Structure (SMILES),Plasma level
1,COc1ccc([C@@H]2c3nc(NC(C)C)ccc3[C@H](c3ccc4c(c3)OCO4)[C@H]2C(=O)O)c(OC(C)CO)c1 (stereo in doubt; form 1) [listing 1 of 2 here],62 nM
2,COCC(C)Cc1cc(OC)ccc1[C@@H]1c2nc(NC(C)C)ccc2[C@H](c2ccc3c(c2)OCO3)[C@H]1C(=O)O (stereo in doubt; form 2) [listing 1 of 2 here],120 nM
3,COc1ccc([C@@H]2c3nc(NC(C)C)ccc3[C@H](c3ccc4c(c3)OCO4)[C@H]2C(=O)O)c(OC(C)CO)c1 (stereo in doubt; form 2) [listing 2 of 2 here],69 nM

# System: Mus musculus
# Assay: In vivo efficacy of compound was determined in mouse after intravenous administration
# Assay type: functional
row,Structure (SMILES),AD50
1,COc1ccc([C@@H]2c3nc(NC(C)C)ccc3[C@H](c3ccc4c(c3)OCO4)[C@H]2C(=O)O)c(CC(C)C(=O)N(C)C)c1 (stereo in doubt),0.017 MPK
2,COc1ccc([C@@H]2c3nc(NC(C)C)ccc3[C@H](c3ccc4c(c3)OCO4)[C@H]2C(=O)O)c(OC(C)CO)c1 (stereo in doubt; form 1) [listing 2 of 2 here],0.046 MPK
3,COCC(C)Cc1cc(OC)ccc1[C@@H]1c2nc(NC(C)C)ccc2[C@H](c2ccc3c(c2)OCO3)[C@H]1C(=O)O (stereo in doubt; form 2) [listing 2 of 2 here],0.042 MPK

# System: Rattus norvegicus
# Assay: Plasma levels of compound was evaluated in rats after 1 hr of oral administration at 10 mg/kg
# Assay type: functional, organism-based
# Design: dose 10 mg/kg
row,Structure (SMILES),Plasma level
1,COc1ccc([C@@H]2c3nc(NC(C)C)ccc3[C@H](c3ccc4c(c3)OCO4)[C@H]2C(=O)O)c(OC(C)CO)c1 (stereo in doubt; form 1) [listing 1 of 2 here],160 nM
2,COCC(C)Cc1cc(OC)ccc1[C@@H]1c2nc(NC(C)C)ccc2[C@H](c2ccc3c(c2)OCO3)[C@H]1C(=O)O (stereo in doubt; form 2) [listing 1 of 2 here],810 nM
3,COc1ccc([C@@H]2c3nc(NC(C)C)ccc3[C@H](c3ccc4c(c3)OCO4)[C@H]2C(=O)O)c(OC(C)CO)c1 (stereo in doubt; form 2) [listing 2 of 2 here],440 nM

# Species: Oryctolagus cuniculus
# Assay: Antagonistic activity towards endothelin A receptor was evaluated using the rabbit iliac artery in presence of 3% human serum albumin
# Assay type: functional
row,Structure (SMILES),PKB
1,COc1ccc([C@@H]2c3nc(NC(C)C)ccc3[C@H](c3ccc4c(c3)OCO4)[C@H]2C(=O)O)c(OC(C)CO)c1 (stereo in doubt; form 1) [listing 2 of 2 here],8
2,COc1ccc([C@@H]2c3nc(NC(C)C)ccc3[C@H](c3ccc4c(c3)OCO4)[C@H]2C(=O)O)c(OC(C)CO)c1 (stereo in doubt; form 2) [listing 1 of 2 here],7.46

# Biological target: T2, Endothelin receptor type B (Homo sapiens, UniProt P24530)
# T2 sequence (P24530 whole entry): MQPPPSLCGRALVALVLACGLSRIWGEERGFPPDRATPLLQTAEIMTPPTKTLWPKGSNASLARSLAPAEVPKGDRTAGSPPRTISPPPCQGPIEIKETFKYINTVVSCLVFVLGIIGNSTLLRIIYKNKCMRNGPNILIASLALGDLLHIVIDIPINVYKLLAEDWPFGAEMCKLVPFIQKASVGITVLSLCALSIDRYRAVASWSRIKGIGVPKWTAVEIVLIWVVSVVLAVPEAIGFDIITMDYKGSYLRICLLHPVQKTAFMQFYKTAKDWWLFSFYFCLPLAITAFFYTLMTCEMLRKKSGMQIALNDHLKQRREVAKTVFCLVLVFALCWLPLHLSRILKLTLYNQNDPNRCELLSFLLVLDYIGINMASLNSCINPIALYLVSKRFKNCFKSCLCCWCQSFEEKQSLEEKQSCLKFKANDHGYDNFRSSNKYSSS
# Assay: Inhibitory activity against [125I]ET1 binding to human endothelin B receptor
row,IC50,Structure (SMILES)
1,6 nM,"COc1ccc([C@@H]2c3nc(NC(C)C)ccc3[C@H](c3ccc4c(c3)OCO4)[C@H]2C(=O)O)c(CC(O)CO)c1 (single isomer, unassigned)"
2,9.5 nM,"COc1ccc([C@@H]2c3nc(NC(C)C)ccc3[C@H](c3ccc4c(c3)OCO4)[C@H]2C(=O)O)c(CC(C)C(=O)N(C)C)c1 (single isomer, unassigned)"
3,5.6 nM,COc1ccc([C@@H]2c3nc(NC(C)C)ccc3[C@H](c3ccc4c(c3)OCO4)[C@H]2C(=O)O)c(CC(O)CO)c1 (stereo in doubt) [listing 2 of 2 here]
4,43 nM,COc1ccc([C@@H]2c3nc(NC(C)C)ccc3[C@H](c3ccc4c(c3)OCO4)[C@H]2C(=O)O)c(CC(C)C(=O)N(C)C)c1 (stereo in doubt)
5,61 nM,COc1ccc([C@@H]2c3nc(NC(C)C)ccc3[C@H](c3ccc4c(c3)OCO4)[C@H]2C(=O)O)c(OC(C)CO)c1 (stereo in doubt; form 1) [listing 2 of 2 here]
6,15.7 nM,CCC(CO)Cc1cc(OC)ccc1[C@@H]1c2nc(NC(C)C)ccc2[C@H](c2ccc3c(c2)OCO3)[C@H]1C(=O)O (stereo in doubt; form 1) [listing 2 of 2 here]
7,51 nM,COc1ccc([C@@H]2c3nc(NC(C)C)ccc3[C@H](c3ccc4c(c3)OCO4)[C@H]2C(=O)O)c(CC(C)CO)c1 (stereo in doubt; form 2) [listing 2 of 2 here]
8,78 nM,COc1ccc([C@@H]2c3nc(NC(C)C)ccc3[C@H](c3ccc4c(c3)OCO4)[C@H]2C(=O)O)c(OC(C)CO)c1 (stereo in doubt; form 2) [listing 1 of 2 here]
9,25 nM,COCC(C)Cc1cc(OC)ccc1[C@@H]1c2nc(NC(C)C)ccc2[C@H](c2ccc3c(c2)OCO3)[C@H]1C(=O)O (stereo in doubt; form 2) [listing 2 of 2 here]
10,11 nM,CCC(CO)Cc1cc(OC)ccc1[C@@H]1c2nc(NC(C)C)ccc2[C@H](c2ccc3c(c2)OCO3)[C@H]1C(=O)O (stereo in doubt; form 2) [listing 2 of 2 here]
